pIC50: −log10 of the molar value. “Also recorded” adds a separate entry of the source. Like-named read-outs stand apart in the source and are kept apart here. Each block holds one molecule with its values, some of them ahead of it.
Columns and labels:
A‐673 cells = experiment: Cell viability assay (XTT), A‐673 cells; assay type: cell-based, human; conditions: for GI50: Homo sapiens, A673; for Effect of DHODH overexpression on cell growth inhibitory effect in A‐673 cells: pcDNA3.1hygro(+)‐hDHODH transfected
Description: (§1) AsPC‐1, A‐673, and TC‐71 cells were seeded in 96‐well plates (800 cells/well for AsPC‐1, 2000 cells/well for A‐673, and 400 cells/well for TC‐71) and cultured overnight. Vehicle (DMSO) or a test compound diluted with the medium was then added to the wells (final DMSO concentration was 0.3%), and 72 h later, 2,3‐bis[2‐methoxy‐4‐nitro‐5‐sulfophenynl]‐2H‐tetrazolium‐5‐carboxanilide inner salt (XTT) reagent (Roche Diagnostics, Mannheim, Germany) was added to the medium. After 3‐h incubation at 37°C, the formation of the formazan dye was determined by measuring absorbance at 490 and 650 nm using a SpectraMax 340PC system (Molecular Devices, Sunnyvale, CA, USA).

DAX1 = DAX1 reporter assay (KJMGER8/pAGal9p4‐hDAX1 cells, luciferase); assay type: cell-based, human; conditions: for pIC50: Homo sapiens; for Inhibitory effect on DAX1 reporter activity: overnight treatment
Description: pAGal9‐hDAX1 and pAPPRE×10‐Luc + were transfected into KJMGER8 cells by electroporation using a Gene Pulser (Bio‐Rad Laboratories, Hercules, CA, USA), and clones stably expressing the DAX1 and luciferase reporter genes under the control of PPRE were selected. The obtained clone was termed KJMGER8/pAGal9p4‐hDAX1. KJMGER8/pAGal9p4‐hDAX1 cells (1.8 × 10^4 cells/well) were seeded in 384‐well white plates (Greiner Japan, Tokyo, Japan) and cultured in RPMI1640‐IPTSG medium containing 10 nM 17β‐estradiol (E2; Sigma‐Aldrich), dissolved in ethanol, with test compounds at concentration ranges of 0.01 to 10,000 nM or vehicle (dimethyl sulfoxide [DMSO]). The final DMSO concentration was ≤0.3%, and the ethanol concentration was 0.1%. The next day, Blight‐Glo Luciferase Assay Reagent (Promega, Madison, WI, USA) was added to the medium. The luciferase activity was measured using a TopCount NXT system (PerkinElmer, Waltham, MA, USA). IC50 values were calculated using XLfit version 4 (ID Business Solutions, Surrey, UK).
A DAX1 reporter assay system was constructed with the estrogen‐inducible Namalwa cell (KJMGER8 cell) by co‐transfection with pAGal9‐hDAX1 and pAPPRE×10‐Luc+.[18] In the obtained cell line KJMGER8/pAGal9p4‐hDAX1, DAX1 expression is induced by E2 treatment, and the expressed DAX1 increases luciferase expression. Reporter activity was increased by E2 treatment as expected (Figure S2). […] Using this DAX1 reporter assay system, small‐molecule compounds in an in‐house library were screened to obtain DAX1 inhibitors, and K‐234 was identified (Figure 1).
pAGal9-hDAX1 and pAPPRE×10-Luc+ were transfected into KJMGER8 cells by electroporation using a Gene Pulser (Bio-Rad Laboratories, Hercules, CA, USA), and clones stably expressing the DAX1 and luciferase reporter genes under the control of PPRE were selected. The obtained clone was termed KJMGER8/pAGal9p4-hDAX1. KJMGER8/pAGal9p4-hDAX1 cells (1.8×10^4 cells/well) were seeded in 384-well white plates (Greiner Japan, Tokyo, Japan) and cultured in RPMI1640-IPTSG medium containing 10 nM 17β-estradiol (E2; Sigma-Aldrich), dissolved in ethanol, with test compounds at concentration ranges of 0.01 to 10000 nM or vehicle (dimethyl sulfoxide [DMSO]). The final DMSO concentration was ≤0.3%, and the ethanol concentration was 0.1%. The next day, Blight-Glo Luciferase Assay Reagent (Promega, Madison, WI, USA) was added to the medium. The luciferase activity was measured using a TopCount NXT system (PerkinElmer, Waltham, MA, USA). IC50 values were calculated using XLfit version 4 (ID Business Solutions, Surrey, UK)

DHODH [1] = molecular target: T1, DHODH (Mus musculus, UniProt O35435); experiment: DHODH inhibition with mouse liver mitochondria; assay type: biochemical; conditions: mouse liver mitochondria; read-out: DHODH IC50 Mouse
T1 construct: IC50 value for the mouse liver mitochondrial fraction; from tissue; host or cells: mouse liver mitochondria

DHODH [2] = molecular target: T2, DHODH (Homo sapiens, UniProt Q02127); experiment: DHODH inhibition assay, A‐673 mitochondria fraction (orotic acid production, LCMSMS); assay type: biochemical
T2 construct: The mitochondria fraction was isolated from A‐673 cells using Q proteome Mitochondria Isolation kit; endogenous in cells; host or cells: A-673 cells, mitochondria fraction
Description: The mitochondria fraction was isolated from A‐673 cells using Q proteome Mitochondria Isolation kit (QIAGEN, Hilden, Germany). The protein concentration of the fraction was determined using the DC‐protein assay kit (Bio‐Rad Laboratories, Hercules, CA, USA) with bovine serum albumin (Sigma‐Aldrich) as the standard. […] The reaction was quenched by adding 120 μL of 3 μM 5‐fluoroorotic acid acetonitrile solution. These samples were then centrifuged at 5000 g for 5 min to precipitate proteins, and the supernatant was collected. The samples were diluted 10‐fold with 70% acetonitrile‐water and subjected to liquid chromatography with tandem mass spectrometry (LCMSMS). The analyte was then separated on a hydrophilic interaction chromatography column (PC‐HILIC; 5 μm, 4.6 mm I.D. × 50 mm; Osaka Soda, Osaka, Japan). LCMSMS detection was performed by electrospray ionization in negative ion mode.

EWS‐FLI1‐related genes = experiment: EWS‐FLI1‐related gene expression in A‐673 cells (RT‐qPCR); assay type: cell-based, human; conditions: 48 h; for Expression of DAX1, IGFBP3, and DKK1 in A‐673 cells / Effect of uridine addition on up‐regulation of DAX1, IGFBP3, and DKK1: 1000 nmol/L; for Effect of uridine addition on up‐regulation of DAX1, IGFBP3, and DKK1: uridine 100 μM
Description: Total RNA was extracted using the RNeasy Plus Mini kit (Qiagen, Valencia, CA, USA) according to the manufacturer's protocol. cDNA was synthesized from 1 μg of total RNA using a SuperScript VILO cDNA synthesis kit (Thermo Fisher Scientific). Real‐time PCR was carried out using TaqMan Fast Universal PCR Master Mix (Thermo Fisher Scientific).
FIGURE 3 EWS‐FLI1‐related gene expression after treatment with DAX1 inhibitors and knockdown of FLI1 in A‐673 cells. (A) A‐673 cells were treated with siRNA of FLI1 (siFLI‐1, siFLI‐2) or control siRNA (control siRNA1, control siRNA2) for 24 h, and EWS‐FLI1‐related genes were analyzed (details of siRNA are shown in Table S2). The gene expression was normalized by the GAPDH expression and normalized by the mean of control siRNA‐treated samples. Each bar represents the mean of duplicate measurements. (B) A‐673 cells were treated with PTC299 at 1000 nM for 48 h, and EWS‐FLI1‐related genes were analyzed. Gene expression was normalized by the GAPDH expression and by DMSO‐treated samples. Each bar represents the mean of duplicate measurements.
FIGURE 6 Influence of DHODH overexpression on Ewing's sarcoma cell growth and the EWS‐FLI1‐regulated gene expression. (A) pcDNA3.1hygro(+)‐hDHODH was transfected into A‐673 cells. The A‐673 cells with DHODH or control A‐673 cells were treated with indicated concentrations of PTC299 and KF20444 for 72 h, and cell viability was measured. Each plot represents the mean of triplicate measurements. (B) A‐673 cells with or without uridine (100 μM) were treated with indicated concentrations of PTC299 for 72 h, and cell viability was measured. Each plot represents the mean of triplicate measurements. (C) A‐673 cells with or without uridine (100 μM) were treated with PTC299 and KF20444 at 1000 nmol/L for 48 h, and the EWS‐FLI1‐related gene expression was evaluated. The expression was normalized by GAPDH and by DMSO‐treated samples. (D) KJMGER8/pAGal9p4‐hDAX1 cells with or without uridine (100 μM) were treated with indicated concentrations of PTC299 and K‐733 overnight, and the luciferase activity was measured. Each plot represents the mean of quadruplicate measurements.

DHODH [3] = molecular target: T3, DHODH (Rattus norvegicus, UniProt Q63707); experiment: DHODH inhibition with rat liver mitochondria; assay type: biochemical
T3 construct: from tissue; host or cells: rat liver mitochondria

RD‐ES cells = experiment: Cell viability, RD‐ES cells; assay type: cell-based, human; conditions: 120 h, type 2 fusion
Description: (§2) FIGURE 2 K‐234 influences the growth of Ewing's sarcoma. (A) Ewing's sarcoma‐derived A‐673 and TC‐71 cells and human pancreas adenocarcinoma‐derived AsPC‐1 cells as a control were treated with indicated concentrations of K‐234 for 72 h, and cell viability was measured. Each value represents the mean of duplicate measurements. (B) Ewing's sarcoma with type 2‐fusion gene‐derived SK‐ES‐1, RD‐ES, and MHH‐ES‐1 cells and Ewing's sarcoma with EWS‐ERG fusion gene‐derived CADO‐ES1 cells were treated with indicated concentrations of K‐234 for 120 h, and cell viability was measured. Each value represents the mean of duplicate measurements.

SK‐ES‐1 cells = experiment: Cell viability, SK‐ES‐1 cells; assay type: cell-based, human; conditions: 120 h, type 2 fusion
Description: as §2

TC‐71 cells = experiment: Cell viability assay (XTT), TC‐71 cells; assay type: cell-based, human; conditions: 72 h
Description: as §1

MHH‐ES‐1 cells = experiment: Cell viability, MHH‐ES‐1 cells; assay type: cell-based, human; conditions: 120 h, type 2 fusion
Description: as §2

CADO‐ES1 cells = experiment: Cell viability, CADO‐ES1 cells; assay type: cell-based, human; conditions: 120 h, EWS‐ERG fusion
Description: as §2

[4] = 50% growth inhibition concentration, A‐673 cells
[5] = KJMGER8, Table S3, read-out: DAX1 reporter IC50
[6] = KJMGER8/pAGal9p4‐hDAX1 cells, 10 nM E2, overnight, read-out: IC50 for inhibition of DAX1 reporter activity

T2 sequence (Q02127 whole entry): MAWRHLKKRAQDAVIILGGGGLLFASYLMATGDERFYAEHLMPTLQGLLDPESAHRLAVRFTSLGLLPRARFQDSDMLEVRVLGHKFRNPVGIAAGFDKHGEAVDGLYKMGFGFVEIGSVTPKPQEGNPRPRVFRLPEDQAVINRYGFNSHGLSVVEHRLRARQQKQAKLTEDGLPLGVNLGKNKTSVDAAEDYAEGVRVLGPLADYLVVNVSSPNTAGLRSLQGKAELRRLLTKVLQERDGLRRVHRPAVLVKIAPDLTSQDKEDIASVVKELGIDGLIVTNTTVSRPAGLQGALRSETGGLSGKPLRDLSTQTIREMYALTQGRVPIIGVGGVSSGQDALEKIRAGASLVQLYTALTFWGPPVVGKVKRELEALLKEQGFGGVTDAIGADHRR
T1 sequence (O35435 whole entry): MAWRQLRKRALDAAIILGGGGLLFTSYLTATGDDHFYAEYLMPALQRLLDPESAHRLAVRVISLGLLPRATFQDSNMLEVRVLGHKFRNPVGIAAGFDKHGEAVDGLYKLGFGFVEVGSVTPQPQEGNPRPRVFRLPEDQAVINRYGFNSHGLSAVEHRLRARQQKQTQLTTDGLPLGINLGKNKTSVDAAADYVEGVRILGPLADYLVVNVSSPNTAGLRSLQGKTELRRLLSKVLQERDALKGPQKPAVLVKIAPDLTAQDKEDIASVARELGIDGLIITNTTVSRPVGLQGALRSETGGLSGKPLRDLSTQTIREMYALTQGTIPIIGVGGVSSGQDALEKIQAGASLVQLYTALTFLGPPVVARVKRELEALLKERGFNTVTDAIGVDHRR
T3 sequence (Q63707 whole entry): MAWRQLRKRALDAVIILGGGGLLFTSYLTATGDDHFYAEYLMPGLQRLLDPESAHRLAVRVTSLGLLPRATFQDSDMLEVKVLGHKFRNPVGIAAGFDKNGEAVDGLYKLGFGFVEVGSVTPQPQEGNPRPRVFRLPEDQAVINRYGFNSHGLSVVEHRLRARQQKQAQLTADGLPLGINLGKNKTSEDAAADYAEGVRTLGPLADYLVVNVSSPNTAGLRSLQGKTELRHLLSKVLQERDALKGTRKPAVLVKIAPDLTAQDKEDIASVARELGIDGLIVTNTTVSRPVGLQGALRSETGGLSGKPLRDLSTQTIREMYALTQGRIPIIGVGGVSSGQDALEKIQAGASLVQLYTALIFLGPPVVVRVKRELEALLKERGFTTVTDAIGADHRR

Compound: Cc1c(-c2ccc(-c3ccccc3F)cc2)nc2ccc(F)cc2c1C(=O)O [Brequinar]
GI50 (A‐673 cells; [4]): 115 nM
pIC50 (DAX1; [5]): 7.14

Compound: O=C(Oc1ccccc1)N1CCc2c([nH]c3ccc(Cl)cc23)C1c1ccc(Cl)cc1 (stereo not drawn) [K‐234, phenyl 6‐chloro‐1‐(4‐chlorophenyl)‐1,3,4, 9‐tetrahydro‐2H‐pyrido[3,4‐b]indole‐2‐carboxylate]
Cell viability of RD‐ES cells (RD‐ES cells): significantly reduced the viability
Cell viability of SK‐ES‐1 cells (SK‐ES‐1 cells): significantly reduced the viability
Cell viability of A‐673 cells (A‐673 cells; 72 h): significantly reduced the viability
Cell viability of TC‐71 cells (TC‐71 cells): significantly reduced the viability
Cell viability of MHH‐ES‐1 cells (MHH‐ES‐1 cells): significantly reduced the viability
Cell viability of CADO‐ES1 cells (CADO‐ES1 cells): significantly reduced the viability
pIC50 (DAX1; [6]): 7.02

Compound: CC(=O)N1CCc2c([nH]c3ccc(Br)cc23)C1c1ccccc1 (stereo not drawn) [NSC 665564]
pIC50 (DHODH [2]; Table S3, read-out: DHODH IC50): 8.46
GI50 (A‐673 cells; [4]): 119 nM
pIC50 (DAX1; [5]): 6.18

Compound: CC(=O)O[C@H]1C(=O)[C@@]2(C)[C@H]([C@H](OC(=O)c3ccccc3)[C@]3(O)C[C@H](OC(=O)[C@H](O)[C@@H](NC(=O)c4ccccc4)c4ccccc4)C(C)=C1C3(C)C)[C@]1(OC(C)=O)CO[C@@H]1C[C@@H]2O [Paclitaxel]
Inhibitory effect on DAX1 reporter activity (DAX1): did not inhibit
Inhibitory effect on DAX1 reporter activity (DAX1; listed as paclitaxel): did not show a remarkable inhibitory effect

Compound: C/C(O)=C(\C#N)C(=O)Nc1ccc(C(F)(F)F)cc1 [Teriflunomide]
GI50 (A‐673 cells; Figure 7 legend): > 10000 nM
pIC50 (DAX1; [5]): 5.07

The next lines start with results.

pIC50 (DHODH [1]): 8.21
pIC50 (DHODH [2]; Table S3, read-out: DHODH IC50): 7.77
pIC50 (DAX1; [5]): 7.88
pIC50 (DHODH [3]): 7.47
Compound: O=C(O)c1c2c(nc3ccc(F)cc13)-c1ccc(-c3ccccc3F)cc1CCC2 [KF20444]
Expression of DAX1, IGFBP3, and DKK1 in A‐673 cells (EWS‐FLI1‐related genes): up‐regulated
Effect of uridine addition on up‐regulation of DAX1, IGFBP3, and DKK1 (EWS‐FLI1‐related genes): abrogated
Cell viability of A‐673 cells (A‐673 cells; 72 h): reduced the cell viability
Effect of DHODH overexpression on cell growth inhibitory effect in A‐673 cells (A‐673 cells; 72 h): weakened; also recorded: partially attenuated
GI50 (A‐673 cells; [4]): 22.2 nM

pIC50 (DHODH [1]): 6.99
pIC50 (DHODH [2]; read-out: IC50 for orotic acid production through DHODH): 8.38
pIC50 (DAX1; [6]): 7.48
pIC50 (DHODH [3]): 5.82
Compound: COc1ccc([C@H]2c3[nH]c4ccc(Cl)cc4c3CCN2C(=O)Oc2ccc(Cl)cc2)cc1 [PTC299, 4‐chlorophenyl (S)‐6‐chloro‐1‐(4‐methoxyphenyl)‐1,3,4,9‐tetrahydro‐2H‐pyrido[3,4‐b]indole‐2‐carboxylate]
DAX1 expression in A‐673 cells (EWS‐FLI1‐related genes; 1000 nM): slightly induced
Expression of DAX1, IGFBP3, and DKK1 in A‐673 cells (EWS‐FLI1‐related genes): up‐regulated
Effect of uridine addition on up‐regulation of DAX1, IGFBP3, and DKK1 (EWS‐FLI1‐related genes): abrogated
Cell viability of A‐673 cells (A‐673 cells; 72 h): decreased the viability
Effect of knockdown and overexpression of DAX1 on the reduction in viability of A‐673 cells (A‐673 cells; 72 h): no marked effect
Effect of DHODH overexpression on cell growth inhibitory effect in A‐673 cells (A‐673 cells; 72 h): significantly attenuated; also recorded: completely canceled
GI50 (A‐673 cells; [4]): 5.11 nM
Effect of uridine addition on growth inhibitory effect in A‐673 cells (A‐673 cells; uridine 100 μM, 72 h): completely blocked; also recorded: completely canceled
Cell viability of TC‐71 cells (TC‐71 cells): decreased the viability
Effect of uridine addition on inhibition of DAX1 reporter activity (DAX1; uridine 100 μM, overnight): completely abrogated

From PMC10166890, “Screening for DAX1/EWS‐FLI1 functional inhibitors identified dihydroorotate dehydrogenase as a therapeutic target for Ewing's sarcoma” (Cancer Medicine, 2023)
